Results published in patent US12378243B2, “Quinoline compounds as inhibitors of KRAS” (Incyte Corporation, priority 2021, dated 2025).
pIC50: −log10 of the molar value.

What was measured:
[1] = target: KRAS G12V mutant (Homo sapiens, UniProt P01116, G12V); assay: GDP-GTP exchange assay, KRAS G12V; assay type: biochemical; conditions: bodipy loaded KRAS G12V 2.5 nM; 3 hours incubation after adding GppNHp-SOS1 mixture; read-out: G12V_exchange
[2] = test system: Caco-2 cells; assay: Caco2 assay (permeability, A-B); assay type: in vitro ADME; conditions: Table 4; Papp absorptive direction (A-B), test compound 50 μM, 120 minutes at 37° C.
Protocol: Caco-2 cells are grown at 37° C. in an atmosphere of 5% CO2 in DMEM growth medium supplemented with 10% (v/v) fetal bovine serum, 1% (v/v) nonessential amino acids, penicillin (100 U/mL), and streptomycin (100 μg/mL). Confluent cell monolayers are subcultured every 7 days or 4 days for Caco-2 by treatment with 0.05% trypsin containing […]. Caco-2 cells are seeded in 96-well Transwell plates. The seeding density for Caco-2 cells is 14,000 cells/well. DMEM growth medium is replaced every other day after seeding. Cell monolayers are used for transport assays between 22 and 25 days for Caco-2 cells.
Cell culture medium is removed and replaced with HBSS. To measure the TEER, the HBSS is added into the donor compartment (apical side) and receiver compartment (basolateral side). The TEER is measured by using a REMS Autosampler to ensure the integrity of the cell monolayers. Caco-2 cell monolayers with TEER values ≥300 Ω·cm^2 are used for transport experiments. To determine the Papp in the absorptive direction (A-B), solution of test compound (50 μM) in HBSS is added to the donor compartment (apical side), while HBSS solution with 4% BSA is added to the receiver compartment (basolateral side). The apical volume was 0.075 mL, and the basolateral volume is 0.25 mL. The incubation period is 120 minutes at 37° C. in an atmosphere of 5% CO2. At the end of the incubation period, samples from the donor and receiver sides are removed and an equal volume of acetonitrile is added for protein precipitation. The supernatants are collected after centrifugation (3000 rpm, Allegra X-14R Centrifuge from Beckman Coulter, Indianapolis, IN) for LCMS analysis. The permeability value is determined according to the equation:
[formula] • where the flux rate (F, mass/time) is calculated from the slope of cumulative amounts of compound of interest on the receiver side, SA is the surface area of the cell membrane, VD is the donor volume, and MD is the initial amount of the solution in the donor chamber.
The symbol “+” indicates a Caco-2 value of […], “++” indicates a Caco-2 value of >0.5 but ≤1; and “+++” indicates a Caco-2 value of >1. “NA” indicates IC50 not available.

[3] = target: KRAS G12D (Homo sapiens, UniProt P01116, G12D); assay: GDP-GTP exchange assay, KRAS G12D; assay type: biochemical; conditions: bodipy-loaded KRAS G12D 2.5 nM, GppNHp 500 uM, SOS1 150 nM; 4 hours pre-incubation, 2 hours incubation; read-out: G12D_exchange
Chain of KRAS G12D (P01116 1-188 isoform P01116-2 G12D): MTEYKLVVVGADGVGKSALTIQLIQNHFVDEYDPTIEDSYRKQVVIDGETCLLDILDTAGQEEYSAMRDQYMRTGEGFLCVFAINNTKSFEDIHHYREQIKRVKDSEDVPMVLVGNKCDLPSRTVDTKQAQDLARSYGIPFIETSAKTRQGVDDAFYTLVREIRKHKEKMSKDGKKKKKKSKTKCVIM
Protocol: Inhibitors were serially diluted in DMSO and a volume of 0.1 μL was transferred to the wells of a black low volume 384-well plate. […] The exchange was initiated by the addition of a 5 μL/well volume containing 1 mM GppNHp and 300 nM SOS1 in assay buffer. […] The reaction plates were incubated at ambient temperature for 2 hours, a time estimated for complete GDP-GTP exchange in the absence of inhibitor.
Either GraphPad prism or Genedata Screener SmartFit was used to analyze the data. The IC50 values were derived by fitting the data to a four parameter logistic equation producing a sigmoidal dose-response curve with a variable Hill coefficient.
“NA” indicates IC50 not available.

Chain of KRAS G12V mutant (P01116 1-188 isoform P01116-2 G12V): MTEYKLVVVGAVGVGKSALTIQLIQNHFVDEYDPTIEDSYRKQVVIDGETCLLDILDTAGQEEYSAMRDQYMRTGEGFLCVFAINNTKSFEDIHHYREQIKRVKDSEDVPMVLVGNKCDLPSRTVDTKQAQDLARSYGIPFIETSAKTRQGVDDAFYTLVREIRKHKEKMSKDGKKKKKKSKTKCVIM

Structure (SMILES) | pIC50 [1] | Caco-2 [2] | pIC50 [3]
COC(=O)N1CCC[C@@H]1c1cc2c(-n3cncn3)nc3c(F)c(-c4cccc(C)c4Cl)c(CCC#N)cc3c2n1[C@H]1[C@H]2CN[C@@H]1C2 [Example 29, Methyl (2R)-2-(1-((1R,4R,5S)-2-azabicyclo[2.1.1]hexan-5-yl)-7-(2-chloro-3-methylphenyl)-8-(2-cyanoethyl)-6-fluoro-4-(1H-1,2,4-triazol-1-yl)-1H-pyrrolo[3,2-c]quinolin-2-yl)pyrrolidine-1-carboxylate] | > 7.00 | +++ (a Caco-2 value of >1) | > 7.00
COC(=O)N1[C@@H](c2cc3c(-c4ccc(C(=O)N(C)C)nc4)nc4c(F)c(-c5cccc(Cl)c5Cl)c(CCC#N)cc4c3n2[C@H]2[C@H]3CN[C@@H]2C3)C[C@@H]2C[C@@H]21 [Example 30, Methyl (1S,3R,5S)-3-(1-((1R,4R,5S)-2-azabicyclo[2.1.1]hexan-5-yl)-8-(2-cyanoethyl)-7-(2,3-dichlorophenyl)-4-(6-(dimethylcarbamoyl)pyridin-3-yl)-6-fluoro-1H-pyrrolo[3,2-c]quinolin-2-yl)-2-azabicyclo[3.1.0]hexane-2-carboxylate] | > 7.00 | +++ (a Caco-2 value of >1) | > 7.00
COC(=O)N1CCC[C@@H]1c1cc2c(-c3ccc(C(=O)N(C)C)nc3)nc3c(F)c(-c4cccc(Cl)c4Cl)c(CCC#N)cc3c2n1[C@H]1[C@H]2CN[C@@H]1C2 [Example 32, Methyl (2R)-2-(1-((1R,4R,5S)-2-azabicyclo[2.1.1]hexan-5-yl)-8-(2-cyanoethyl)-7-(2,3-dichlorophenyl)-4-(6-(dimethylcarbamoyl)pyridin-3-yl)-6-fluoro-1H-pyrrolo[3,2-c]quinolin-2-yl)pyrrolidine-1-carboxylate] | > 7.00 | ++ (a Caco-2 value of >0.5 but ≤1) | > 7.00
CNC(=O)c1ccc(-c2nc3c(F)c(-c4cccc(Cl)c4Cl)c(CCC#N)cc3c3c2cc([C@H]2CCCN2C(=O)OC)n3[C@H]2[C@H]3CN[C@@H]2C3)cn1 [Example 33, Methyl (2R)-2-(1-((1R,4R,5S)-2-azabicyclo[2.1.1]hexan-5-yl)-8-(2-cyanoethyl)-7-(2,3-dichlorophenyl)-6-fluoro-4-(6-(methylcarbamoyl)pyridin-3-yl)-1H-pyrrolo[3,2-c]quinolin-2-yl)pyrrolidine-1-carboxylate] | > 7.00 | ++ (a Caco-2 value of >0.5 but ≤1) | > 7.00
Cc1nc2c(F)c(-c3cccc(F)c3Cl)c(CCC#N)cc2c2c1cc([C@H]1CCCN1C(=O)C1CC1)n2[C@H]1[C@H]2CN[C@@H]1C2 [Example 34, 3-(1-((1R,4R,5S)-2-Azabicyclo[2.1.1]hexan-5-yl)-7-(2-chloro-3-fluorophenyl)-2-((R)-1-(cyclopropanecarbonyl)pyrrolidin-2-yl)-6-fluoro-4-methyl-1H-pyrrolo[3,2-c]quinolin-8-yl)propanenitrile] | 6.00 to 7.00 | + (a Caco-2 value of 50.5) | > 7.00
C[C@H](c1cc2c(-c3ccc(C(C)(C)O)nc3)nc3c(F)c(-c4cccc5ccc(F)cc45)c(CCC#N)cc3c2n1[C@H]1[C@H]2CN[C@@H]1C2)n1ccncc1=O [Example 37, 3-(1-((1R,4R,5S)-2-Azabicyclo[2.1.1]hexan-5-yl)-6-fluoro-7-(7-fluoronaphthalen-1-yl)-4-(6-(2-hydroxypropan-2-yl)pyridin-3-yl)-2-((R)-1-(2-oxopyrazin-1(2H)-yl)ethyl)-1H-pyrrolo[3,2-c]quinolin-8-yl)propanenitrile] | > 7.00 | +++ (a Caco-2 value of >1) | > 7.00
CNC(=O)c1ncc(-c2nc3c(F)c(-c4cccc(Cl)c4Cl)c(CCC#N)cc3c3c2cc([C@H]2CCCN2C(=O)OC)n3[C@H]2[C@H]3CN[C@@H]2C3)cc1F [Example 39, Methyl (2R)-2-(1-((1R,4R,5S)-2-azabicyclo[2.1.1]hexan-5-yl)-8-(2-cyanoethyl)-7-(2,3-dichlorophenyl)-6-fluoro-4-(5-fluoro-6-(methylcarbamoyl)pyridin-3-yl)-1H-pyrrolo[3,2-c]quinolin-2-yl)pyrrolidine-1-carboxylate] | > 7.00 | ++ (a Caco-2 value of >0.5 but ≤1) | > 7.00
COC(=O)N1CCC[C@@H]1c1cc2c(-c3ccc(C(C)(C)O)nc3)nc3c(F)c(-c4cccc(Cl)c4Cl)c(CCC#N)cc3c2n1[C@H]1[C@H]2CN[C@@H]1C2 [Example 40, Methyl (2R)-2-(1-((1R,4R,5S)-2-azabicyclo[2.1.1]hexan-5-yl)-8-(2-cyanoethyl)-7-(2,3-dichlorophenyl)-6-fluoro-4-(6-(2-hydroxypropan-2-yl)pyridin-3-yl)-1H-pyrrolo[3,2-c]quinolin-2-yl)pyrrolidine-1-carboxylate] | > 7.00 | ++ (a Caco-2 value of >0.5 but ≤1) | > 7.00
CCOC(=O)N1CCC[C@@H]1c1cc2c(-c3ccc(C(C)(C)O)nc3)nc3c(F)c(-c4cccc(Cl)c4Cl)c(CCC#N)cc3c2n1[C@H]1[C@H]2CN[C@@H]1C2 [Example 41, Ethyl (2R)-2-(1-((1R,4R,5S)-2-azabicyclo[2.1.1]hexan-5-yl)-8-(2-cyanoethyl)-7-(2,3-dichlorophenyl)-6-fluoro-4-(6-(2-hydroxypropan-2-yl)pyridin-3-yl)-1H-pyrrolo[3,2-c]quinolin-2-yl)pyrrolidine-1-carboxylate] | > 7.00 | +++ (a Caco-2 value of >1) | > 7.00
[2H]C([2H])([2H])c1nc2c(F)c(-c3cccc(Cl)c3Cl)c(CCC#N)cc2c2c1cc([C@H]1CCCN1C(=O)N1CC(F)(F)C1)n2[C@H]1[C@H]2CN[C@@H]1C2 [Example 42, 3-(1-((1R,4R,5S)-2-Azabicyclo[2.1.1]hexan-5-yl)-7-(2,3-dichlorophenyl)-2-((R)-1-(3,3-difluoroazetidine-1-carbonyl)pyrrolidin-2-yl)-6-fluoro-4-(methyl-d3)-1H-pyrrolo[3,2-c]quinolin-8-yl)propanenitrile] | > 7.00 | ++ (a Caco-2 value of >0.5 but ≤1) | > 7.00
N#CCCc1cc2c(ncc3cc([C@H]4CCCN4C(=O)N4CC(F)(F)C4)n([C@H]4[C@H]5CN[C@@H]4C5)c32)c(F)c1-c1cccc(Cl)c1Cl [Example 43, 3-(1-((1R,4R,5S)-2-Azabicyclo[2.1.1]hexan-5-yl)-7-(2,3-dichlorophenyl)-2-((R)-1-(3,3-difluoroazetidine-1-carbonyl)pyrrolidin-2-yl)-6-fluoro-1H-pyrrolo[3,2-c]quinolin-8-yl)propanenitrile] | > 7.00 | +++ (a Caco-2 value of >1) | > 7.00
CNC(=O)c1ccc(-c2nc3c(F)c(-c4cccc5ccc(F)cc45)c(CCC#N)cc3c3c2cc([C@@H](C)N2CCOCC2=O)n3[C@H]2[C@H]3CN[C@@H]2C3)cn1 [Example 45, 5-(1-((1R,4R,5S)-2-Azabicyclo[2.1.1]hexan-5-yl)-8-(2-cyanoethyl)-6-fluoro-7-(7-fluoronaphthalen-1-yl)-2-((R)-1-(3-oxomorpholino)ethyl)-1H-pyrrolo[3,2-c]quinolin-4-yl)-N-methylpicolinamide] | > 7.00 | +++ (a Caco-2 value of >1) | > 7.00
